Reference: ChEMBL document CHEMBL1141981, “Studies on synthesis and evaluation of quantitative structure-activity relationship of 5-[(3'-chloro-4',4'-disubstituted-2-oxoazetidinyl)(N-nitro)amino]-6-hydroxy-3-alkyl/aryl[1,3]azaphospholo[1,5-a]pyridin-1-yl-phosphorus dichlorides” (2005)
Values joined by “and” are separate entries in the source; they are usually repeats but may differ in a detail not shown here. Identical values can stand only once.

Legend:
Assay type in all cases: functional
[1] = test system: Bacillus subtilis; experiment: Minimum inhibitory concentration against Bacillus subtilis
[2] = test system: Staphylococcus aureus; experiment: Minimum inhibitory concentration against Staphylococcus aureus
[3] = Minimum inhibitory concentration against Candida albicans

Row | -Log MIC [1] | -Log MIC [2] | Structure (SMILES) | -Log MIC [3]
1 | 4.606 ug ml-1 | 3.097 ug ml-1 | CC1(C)S[C@@H]2[C@H](NC(=O)[C@H](N)c3ccccc3)C(=O)N2[C@H]1C(=O)O [AMPICILLIN] | –
2 | – | – | Clc1ccccc1C(c1ccccc1)(c1ccccc1)n1ccnc1 | 3.14 µg ml-1 and 3.24 µg ml-1
